Data: patent US5767278A, “Telomerase inhibitors” (Geron Corporation, priority 1995, dated 1998)

Legend:
telomerase = biological target: T1, telomerase (Homo sapiens, UniProt O14746); test: Inhibition of telomerase activity (IC50); assay type: biochemical
T1 construct: placing cells, tissues, or preferably a cellular extract or other preparation containing telomerase in contact with; endogenous in cells
From the text: One method used to identify compounds of the invention that inhibit telomerase activity involves placing cells, tissues, or preferably a cellular extract or other preparation containing telomerase in contact with several known concentrations of a test compound in a buffer compatible with telomerase activity. […] Other methods for determining the inhibitory concentration of a compound of the invention against telomerase can be employed as will be apparent to those of skill in the art based on the disclosure herein.
With the above-described methods, IC50 values for several of the compounds of the present invention were determined. The values reported in Table 3 below are only approximate values; more exact IC50 values can be obtained by repetitive testing.

[1] = test system: telomerase-positive cells; test: Telomere length in telomerase-positive cells treated with Compound XIV (one uncontrolled experiment); assay type: cell-based; conditions: dosing period of about 48 hours
Description: Colonies of the tumor cell lines, such as the ovarian tumor cell lines OVCAR-5 and SK-OV-3, and normal human cells used as a control (e.g., normal human BJ cells) are prepared using standard methods and materials. In one test, the colonies are prepared by seeding 15-centimeter dishes with about 10^6 cells in each dish. The dishes are incubated to allow the cell colonies to grow to about 80% confluence, at which time each of the colonies are divided into two groups. One group is exposed to a subacute dose of a compound of the invention at a predetermined concentration (e.g., between about 5 μM and about 20 μM) for a period of about 4-8 hours after plating following the split; the other group is exposed to a control (e.g., DMSO).
Each group is then allowed to continue to divide, and the groups are split evenly again (near confluence). The same number of cells are seeded for continued growth. The compound or control is added every fourth day to the samples at the same concentration delivered initially. Remaining cells are analyzed for telomere length. As the untested cell cultures near confluence, the samples are split again as just described. […]
Telomere length is determined by digesting the DNA of the cells using restriction enzymes specific for sequences other than the repetitive T2 AG3 sequence of human telomeres. […]

[2] = Half-life of Compound XIV; assay type: in vitro ADME; conditions: additional data suggest; on the order of about
[3] = Table 3, only approximate values
[4] = approximate IC50 values, summary of the table

T1 sequence (O14746 whole entry): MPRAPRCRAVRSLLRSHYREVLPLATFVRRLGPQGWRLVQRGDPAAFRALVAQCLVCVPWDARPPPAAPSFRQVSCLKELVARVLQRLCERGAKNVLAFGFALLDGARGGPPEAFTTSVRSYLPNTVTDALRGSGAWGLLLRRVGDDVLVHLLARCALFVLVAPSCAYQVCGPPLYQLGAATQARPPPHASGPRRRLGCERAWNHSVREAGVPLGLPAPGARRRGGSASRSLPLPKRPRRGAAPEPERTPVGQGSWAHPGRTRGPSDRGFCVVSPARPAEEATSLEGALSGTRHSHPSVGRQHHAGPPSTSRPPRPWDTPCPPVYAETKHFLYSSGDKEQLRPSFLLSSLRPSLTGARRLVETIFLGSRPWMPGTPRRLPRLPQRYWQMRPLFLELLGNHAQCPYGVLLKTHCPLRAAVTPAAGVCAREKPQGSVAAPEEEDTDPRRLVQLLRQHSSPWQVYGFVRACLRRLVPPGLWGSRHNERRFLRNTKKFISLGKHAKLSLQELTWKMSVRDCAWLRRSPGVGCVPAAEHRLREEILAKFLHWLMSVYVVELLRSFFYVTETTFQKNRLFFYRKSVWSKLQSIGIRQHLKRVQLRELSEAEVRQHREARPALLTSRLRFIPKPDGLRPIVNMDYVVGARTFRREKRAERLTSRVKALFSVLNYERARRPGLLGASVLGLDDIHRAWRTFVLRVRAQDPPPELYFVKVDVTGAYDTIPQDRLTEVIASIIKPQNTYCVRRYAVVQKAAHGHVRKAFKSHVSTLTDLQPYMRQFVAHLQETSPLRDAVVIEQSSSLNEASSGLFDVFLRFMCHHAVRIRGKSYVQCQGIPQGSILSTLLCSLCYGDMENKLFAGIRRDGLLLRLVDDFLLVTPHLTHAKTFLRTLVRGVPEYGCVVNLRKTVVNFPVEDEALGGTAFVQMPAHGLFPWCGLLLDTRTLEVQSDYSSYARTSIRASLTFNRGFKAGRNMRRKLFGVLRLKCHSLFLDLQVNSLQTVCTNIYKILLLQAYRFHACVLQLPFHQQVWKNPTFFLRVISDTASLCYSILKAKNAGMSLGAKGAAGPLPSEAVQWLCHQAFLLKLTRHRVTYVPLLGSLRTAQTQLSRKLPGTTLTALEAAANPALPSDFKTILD
T1 sequence (O60832 whole entry partner): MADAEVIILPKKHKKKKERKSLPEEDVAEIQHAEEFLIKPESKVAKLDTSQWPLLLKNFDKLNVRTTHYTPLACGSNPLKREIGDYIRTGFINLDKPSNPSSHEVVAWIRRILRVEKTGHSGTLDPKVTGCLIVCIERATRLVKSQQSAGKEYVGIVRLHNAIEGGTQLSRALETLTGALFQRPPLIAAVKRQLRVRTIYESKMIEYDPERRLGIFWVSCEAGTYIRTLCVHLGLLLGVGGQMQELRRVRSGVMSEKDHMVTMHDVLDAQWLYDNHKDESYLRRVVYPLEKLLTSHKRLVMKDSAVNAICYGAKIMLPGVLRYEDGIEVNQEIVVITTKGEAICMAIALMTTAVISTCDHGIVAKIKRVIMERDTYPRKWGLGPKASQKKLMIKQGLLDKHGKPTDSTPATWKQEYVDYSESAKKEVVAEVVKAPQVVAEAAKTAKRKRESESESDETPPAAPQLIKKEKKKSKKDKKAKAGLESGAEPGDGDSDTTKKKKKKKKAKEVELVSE
T1 sequence (Q9NPE3 whole entry partner): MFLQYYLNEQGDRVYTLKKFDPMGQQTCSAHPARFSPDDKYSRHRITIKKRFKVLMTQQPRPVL
T1 sequence (Q9NX24 whole entry partner): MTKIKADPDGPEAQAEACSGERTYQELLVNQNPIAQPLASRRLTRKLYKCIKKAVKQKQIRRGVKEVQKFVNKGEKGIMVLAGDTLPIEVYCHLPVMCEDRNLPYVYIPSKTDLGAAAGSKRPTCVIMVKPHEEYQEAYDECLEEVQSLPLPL
T1 sequence (Q9NY12 whole entry partner): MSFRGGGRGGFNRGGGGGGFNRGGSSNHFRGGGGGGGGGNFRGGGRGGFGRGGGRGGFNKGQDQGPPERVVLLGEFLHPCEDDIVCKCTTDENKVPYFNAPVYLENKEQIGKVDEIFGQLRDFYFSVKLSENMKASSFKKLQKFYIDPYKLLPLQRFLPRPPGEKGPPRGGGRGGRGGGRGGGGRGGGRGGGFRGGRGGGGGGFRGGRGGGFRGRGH

Row | Compound | IC50 (telomerase; [3]) [µM] | further results
1 | COc1ccc(N=Cc2ccc(C#N)c(SCc3ccc(Cl)s3)n2)nc1 [Compound LIII] | 5 | IC50 (telomerase; [4]): < 5 µM
2 | N#Cc1ccc(C=Nc2ccc(Br)cn2)nc1SCc1ccc(Cl)s1 [Compound LII] | < 3.2 | IC50 (telomerase; [4]): < 5 µM
3 | Cc1ccc(NN=Cc2ccc(C#N)c(SCc3ccc(Cl)c(Cl)c3)n2)cc1 [Compound LIV] | 17 | 
4 | N#Cc1ccc(C=NNC(=S)Nc2ccc(F)cc2)nc1SCc1ccc(Cl)c(Cl)c1 [Compound LVII] | 18 | 
5 | Cc1ccc(NC(=S)NN=Cc2ccc(C#N)c(SCc3ccc(Cl)c(Cl)c3)n2)cc1 [Compound LVI] | 18 | 
6 | N#Cc1ccc(C=NNc2ccc(Cl)cc2)nc1SCc1ccc(Cl)c(Cl)c1 [Compound LV] | 19.2 | 
7 | Cc1cccnc1N=Cc1ccc(C#N)c(SCc2cc(Cl)cc(Cl)c2)n1 [Compound XXXVII] |  | IC50 (telomerase; [4]): < 5 µM
8 | Cc1cccnc1N=Cc1ccc(C#N)c(SCc2ccc(C=Cc3ccccc3)cc2)n1 [Compound XX] | 8 | 
9 | CCN1C(=O)c2ccc(N=Cc3ccc(C#N)c(SCc4ccc(Cl)c(Cl)c4)n3)cc2C1=O [Compound X] | 9 | 
10 | N#Cc1ccc(C=Nc2ccc(Cl)cc2)nc1SCc1ccc(Cl)c(Cl)c1 [III] | 6.5 | 
11 | COc1ccc(N=Cc2ccc(C#N)c(SCc3ccc(Cl)c(Cl)c3)n2)cc1 [IV] | 4.9 | IC50 (telomerase; [4]): < 5 µM
12 | N#Cc1ccc(C=Nc2ccc3c(c2)C(=O)N(Cc2ccccc2)C3=O)nc1SCc1ccc(Cl)c(Cl)c1 [IX] | 8 | 
13 | Cc1cccnc1N=Cc1ccc(C#N)c(SCC#CCSc2nc(C=Nc3ncccc3C)ccc2C#N)n1 [LXI] | < 3.2 | IC50 (telomerase; [4]): < 5 µM
14 | N#Cc1ccc(C=Nc2ccc3c(c2)OCCO3)nc1SCc1ccc(Cl)c(Cl)c1 [VIII] | 10 | 
15 | N#Cc1ccc(C=Nc2ccc(Br)c(C(F)(F)F)c2)nc1SCc1ccc(Cl)c(Cl)c1 [VII] | 12 | 
16 | N#Cc1ccc(C=Nc2ccc(F)c(F)c2)nc1SCc1ccc(Cl)c(Cl)c1 [VI] | 10 | 
17 | N#Cc1ccc(N=Cc2ccc(C#N)c(SCc3ccc(Cl)c(Cl)c3)n2)cc1Cl [V] | 10 | 
18 | Cc1ccc(N=Cc2ccc(C#N)c(SCc3ccc(Cl)c(Cl)c3)n2)nc1 [XIII] | 7 | 
19 | Cc1nc(N=Cc2ccc(C#N)c(SCc3ccc(Cl)c(Cl)c3)n2)ccc1Br [XII] | 7 | 

Second part, led by results:

Row | IC50 (telomerase; [3]) [µM] | Compound | further results
20 | < 3.2 | Cc1cccnc1N=Cc1ccc(C#N)c(SCc2ccc(Cl)c(Cl)c2)n1 [Compound XIV] | IC50 (telomerase; [4]): < 5 µM; shorting of telomere length [1]: No significant shorting of telomere length was observed; half-life [2]: ~12 h
21 | 3 | Cc1cccnc1N=Cc1ccc(C#N)c(SCc2ccccc2C(F)(F)F)n1 [Compound XIX] | 
22 | < 3.2 | Cc1cccnc1N=Cc1ccc(C#N)c(SCc2ccc3c(c2)C(C)(C)CCC3(C)C)n1 [Compound XLIII] | IC50 (telomerase; [4]): < 5 µM
23 | < 3.2 | Cc1cccnc1N=Cc1ccc(C#N)c(SCc2csc3ccc(Cl)cc23)n1 [Compound XLVII] | IC50 (telomerase; [4]): < 5 µM
24 | 2 | Cc1cccnc1N=Cc1ccc(C#N)c(SCc2ccccc2-c2ccccc2)n1 [Compound XVIII] | 
25 | 2 | Cc1cccnc1N=Cc1ccc(C#N)c(SCc2cc(C(F)(F)F)cc(C(F)(F)F)c2)n1 [Compound XVII] | 
26 | 1 | Cc1cccnc1N=Cc1ccc(C#N)c(SCc2c(Cl)cccc2Cl)n1 [Compound XVI] | 
27 | 8 | Cc1ccnc(N=Cc2ccc(C#N)c(SCc3ccc(Cl)c(Cl)c3)n2)c1 [Compound XV] | 
28 | 2 | Cc1cccnc1N=Cc1ccc(C#N)c(SCc2ccccc2Br)n1 [Compound XXIII] | 
29 | 2 | Cc1cccnc1N=Cc1ccc(C#N)c(SCc2ccc(-c3ccccc3)cc2)n1 [Compound XXII] | 
30 | 3 | Cc1ccccc1CSc1nc(C=Nc2ncccc2C)ccc1C#N [Compound XXIV] | 
31 | 2 | Cc1cc(C)cc(CSc2nc(C=Nc3ncccc3C)ccc2C#N)c1 [Compound XXIX] | 
32 | 2 | Cc1cccnc1N=Cc1ccc(C#N)c(SCc2ccc(C(C)C)cc2)n1 [Compound XXI] | 
33 | 5 | Cc1cccnc1N=Cc1ccc(C#N)c(SCc2ccc(C(F)(F)F)cc2C(F)(F)F)n1 [Compound XXVII] | 
34 | 0.9 | Cc1ccc(C)c(CSc2nc(C=Nc3ncccc3C)ccc2C#N)c1 [Compound XXVI] | 
35 | 4 | Cc1cccnc1N=Cc1ccc(C#N)c(SCc2cc(Cl)cc3c2OCOC3)n1 [Compound XXV] | 
36 | < 3.2 | Cc1cccnc1N=Cc1ccc(C#N)c(SCc2cc(Cl)cc(Cl)c2)n1 [Compound XXXII] | 
37 | < 3.2 | Cc1ccc(CSc2nc(C=Nc3ncccc3C)ccc2C#N)c(C)c1 [Compound XXXI] | 
38 | 2 | Cc1cccnc1N=Cc1ccc(C#N)c(SCc2ccc(C(C)(C)C)cc2)n1 [Compound XXX] | 
39 | 2 | Cc1cccnc1N=Cc1ccc(C#N)c(SCc2cccc(Cl)c2F)n1 [XXVIII] | 
